In US10167257B2, “Indole derivatives for use in medicine” (IOmet Pharma Ltd., priority 2014, dated 2019):

What was measured:
IDO (SKOV-3 cells) = biological target: T1, IDO (SKOV-3 cells) (Homo sapiens, UniProt P14902); experiment: IDO cell-based assay (SKOV-3, IFNγ-induced), kynurenine production; conditions: SKOV-3 ovary adenocarcinoma cells, IFNγ 500 ng/ml, 500 μM L-Trp, 48 h, kynurenine by absorbance at 490 nm
T1 construct: This assay utilised cancer cells which expressed either TDO or IDO; host or cells: SKOV-3 ovary adenocarcinoma cells, IFNγ-induced
T1 sequence (P14902 whole entry): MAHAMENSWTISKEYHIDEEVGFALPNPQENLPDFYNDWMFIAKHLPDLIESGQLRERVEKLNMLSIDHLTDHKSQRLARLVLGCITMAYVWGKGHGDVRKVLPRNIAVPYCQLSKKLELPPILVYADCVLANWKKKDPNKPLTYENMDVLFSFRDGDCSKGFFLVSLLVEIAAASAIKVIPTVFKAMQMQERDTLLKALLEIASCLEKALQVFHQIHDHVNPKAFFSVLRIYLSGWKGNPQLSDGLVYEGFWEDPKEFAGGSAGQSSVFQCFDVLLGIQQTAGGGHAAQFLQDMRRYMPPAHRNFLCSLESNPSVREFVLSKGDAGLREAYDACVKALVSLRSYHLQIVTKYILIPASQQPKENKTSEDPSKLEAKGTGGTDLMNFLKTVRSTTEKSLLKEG
Text: (§1) Two different types of assay were employed: 1. A TDO and IDO biochemical coupled assay which utilised recombinantly produced and purified TDO and IDO enzymes in combination with the enzyme formamidase. This coupled enzyme system allowed conversion of N-formylkynurenine produced by TDO or IDO activity to kynurenine which was then quantified by fluorescence following addition of Erhlich's Reagent. 2. A cell-based assay for detecting the effect of test compounds on kynurenine production in two different cancer cell types. This assay utilised cancer cells which expressed either TDO or IDO and as such was used as a means of testing compound activity at these two enzymes in a cell-based context. The protocols for these are set out below.
(§2) A172 human glioblastoma (ATCC) were grown in DMEM+2 mM L-glutamine medium supplemented with 10% foetal bovine serum and SKOV-3 ovary adenocarcinoma (ATCC) cells were grown in McCoys 5A+L-glutamax medium supplemented with 15% foetal bovine serum. On the day of assay, cells were detached using trypsin-EDTA (0.25% v/v), re-suspended in assay media (RPMI 1640 phenol red free+L-glutamine supplemented with 10% dialysed foetal bovine serum). A172 cells were seeded at 30K cells per well and SKOV-3 cells at 40K cells per well into 96-well plates containing test samples/vehicle control together with 500 μM L-Trp. Cells were then incubated for 48 h at 37° C., 5% CO2. In SK-OV-3 cells, IFNγ was also added at 500 ng/ml for the 48 h incubation in order to induce expression of IDO. Plates were centrifuged and the supernatant was removed and incubated for 5 min in the presence of 1% Erhlich's reagent. Kynurenine levels were then quantified by measuring absorbance at 490 nm.

TDO (A172 cells) = biological target: T2, TDO (A172 cells) (Homo sapiens, UniProt P48775); experiment: TDO cell-based assay (A172), kynurenine production; conditions: A172 human glioblastoma cells, 500 μM L-Trp, 48 h, kynurenine by absorbance at 490 nm
T2 construct: This assay utilised cancer cells which expressed either TDO or IDO; host or cells: A172 human glioblastoma cells
T2 sequence (P48775 whole entry): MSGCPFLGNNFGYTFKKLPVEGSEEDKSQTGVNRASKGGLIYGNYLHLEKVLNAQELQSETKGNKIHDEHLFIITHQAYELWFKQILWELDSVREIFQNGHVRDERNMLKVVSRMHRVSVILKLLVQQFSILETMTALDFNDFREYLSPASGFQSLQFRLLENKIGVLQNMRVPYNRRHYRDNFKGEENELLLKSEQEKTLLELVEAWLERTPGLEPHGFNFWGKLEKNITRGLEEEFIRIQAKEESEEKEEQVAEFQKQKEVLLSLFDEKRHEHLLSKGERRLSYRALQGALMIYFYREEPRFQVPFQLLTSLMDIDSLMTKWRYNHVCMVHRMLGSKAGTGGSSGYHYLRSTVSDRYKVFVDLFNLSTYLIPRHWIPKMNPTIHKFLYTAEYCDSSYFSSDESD
Text: as §1, §2

| SMILES | IDO cellular assay (SKOV3) pIC50 (IDO (SKOV-3 cells)) | TDO cellular assay (A172) pIC50 (TDO (A172 cells)) |
| --- | --- | --- |
| O=C(NC1CCCCC1O)c1cc2cc(Cl)ccc2[nH]1 (stereo not drawn) [Compound 119] | + (+ = pIC50 4.50-<5.00) | − (− = pIC50 <4.50) |
| Cn1cc(C2(NC(=O)c3cc4cc(Cl)ccc4[nH]3)CCCCC2)cn1 [Compound 251] | +++ (+++ = pIC50 ≥5.50) | − (− = pIC50 <4.50) |
| CC(NC(=O)c1cc2ccccc2[nH]1)c1ccc(C(F)(F)F)cc1 (stereo not drawn) [Compound 19] | +++ (+++ = pIC50 ≥5.50) | − (− = pIC50 <4.50) |
| CC(CCNS(C)(=O)=O)NC(=O)c1cc2cc(Cl)ccc2[nH]1 (stereo not drawn) [Compound 122] | ++ (++ = pIC50 5.00-<5.50) | − (− = pIC50 <4.50) |
| C[C@@H](NC(=O)c1cc2c(F)cccc2[nH]1)c1ccccc1 [Compound 62] | +++ (+++ = pIC50 ≥5.50) | +++ (+++ = pIC50 ≥5.50) |
| CC(NC(=O)c1cc2c(Cl)c(Cl)ccc2[nH]1)c1cccnc1 (stereo not drawn) [Compound 21] | ++ (++ = pIC50 5.00-<5.50) | − (− = pIC50 <4.50) |
| CC(NC(=O)c1cc2ccccc2[nH]1)c1ccccn1 (stereo not drawn) [Compound 37] | + (+ = pIC50 4.50-<5.00) | − (− = pIC50 <4.50) |
| Cc1ccc2[nH]c(C(=O)NC(C)c3ccccc3)cc2c1 (stereo not drawn) [Compound 26] | +++ (+++ = pIC50 ≥5.50) | ++ (++ = pIC50 5.00-<5.50) |
| CC(NC(=O)c1cc2cc(Cl)ccc2[nH]1)c1cnn(-c2ccccc2)c1 (stereo not drawn) [Compound 124] | +++ (+++ = pIC50 ≥5.50) | − (− = pIC50 <4.50) |
| C[C@H](NC(=O)c1cc2cccc(F)c2[nH]1)c1ccccc1 [Compound 63] | + (+ = pIC50 4.50-<5.00) | + (+ = pIC50 4.50-<5.00) |
| CC(NC(=O)c1cc2cc(Cl)ccc2[nH]1)c1ncco1 (stereo not drawn) [Compound 104] | ++ (++ = pIC50 5.00-<5.50) | + (+ = pIC50 4.50-<5.00) |
| Cc1ncc(C(C)NC(=O)c2cc3cc(Cl)ccc3[nH]2)o1 (stereo not drawn) [Compound 228] | ++ (++ = pIC50 5.00-<5.50) | ++ (++ = pIC50 5.00-<5.50) |
| Cc1nccc2c(NC(=O)c3cc4cc(F)ccc4[nH]3)cccc12 [Compound 120] | +++ (+++ = pIC50 ≥5.50) | − (− = pIC50 <4.50) |
| N#Cc1ccc2[nH]c(C(=O)NC3(c4ccccc4)CC3)cc2c1 [Compound 136] | +++ (+++ = pIC50 ≥5.50) | − (− = pIC50 <4.50) |
| CC(NC(=O)c1cc2ccccc2[nH]1)c1cccc(Cl)c1 (stereo not drawn) [Compound 14] | ++ (++ = pIC50 5.00-<5.50) | − (− = pIC50 <4.50) |
| O=C(NCc1cc2cc(F)ccc2[nH]1)c1ccccc1 [Compound 52] | + (+ = pIC50 4.50-<5.00) | + (+ = pIC50 4.50-<5.00) |
| COc1ccc2[nH]c(C(=O)NC3(c4cnn(C)c4)CC3)cc2c1 [Compound 176] | +++ (+++ = pIC50 ≥5.50) | − (− = pIC50 <4.50) |
| COc1ccc2cc(C(=O)NC3(c4ccccc4)COC3)[nH]c2c1 [Compound 169] | ++ (++ = pIC50 5.00-<5.50) | − (− = pIC50 <4.50) |
| C[C@H](NC(=O)c1cc2cc(Cl)ccc2[nH]1)c1ccccc1 [Compound 50] | +++ (+++ = pIC50 ≥5.50) | +++ (+++ = pIC50 ≥5.50) |
| C[C@@H](NC(=O)c1cc2cc(OC(F)(F)F)ccc2[nH]1)c1ccccc1 [Compound 247] | +++ (+++ = pIC50 ≥5.50) | − (− = pIC50 <4.50) |

| SMILES | IDO cellular assay (SKOV3) pIC50 (IDO (SKOV-3 cells)) | TDO cellular assay (A172) pIC50 (TDO (A172 cells)) |
| --- | --- | --- |
| CC(NC(=O)c1cc2cc(Cl)c(F)cc2[nH]1)c1cnn(C)c1 (stereo not drawn) [Compound 203] | ++ (++ = pIC50 5.00-<5.50) | + (+ = pIC50 4.50-<5.00) |
| O=C(NC1(c2ccccc2)CC1)c1cc2c(F)c(Cl)ccc2[nH]1 [Compound 194] | +++ (+++ = pIC50 ≥5.50) | − (− = pIC50 <4.50) |
| CC(NC(=O)c1cc2cc(Cl)ccc2[nH]1)C1CCN(S(C)(=O)=O)CC1 (stereo not drawn) [Compound 111] | ++ (++ = pIC50 5.00-<5.50) | − (− = pIC50 <4.50) |
| O=C(NC1(c2ccncc2)CC1)c1cc2cc(Cl)ccc2[nH]1 [Compound 223] | +++ (+++ = pIC50 ≥5.50) | − (− = pIC50 <4.50) |
| O=C(NC1(c2ncccn2)CC1)c1cc2cc(Cl)ccc2[nH]1 [Compound 179] | ++ (++ = pIC50 5.00-<5.50) | − (− = pIC50 <4.50) |
| Cc1nc(C(C)NC(=O)c2cc3cc(C#N)ccc3[nH]2)co1 (stereo not drawn) [Compound 222] | ++ (++ = pIC50 5.00-<5.50) | − (− = pIC50 <4.50) |
| O=C(NC1(c2ccccc2)CCC1)c1cc2cc(Cl)ccc2[nH]1 [Compound 132] | +++ (+++ = pIC50 ≥5.50) | + (+ = pIC50 4.50-<5.00) |
| O=C(NC1(c2ccccc2)COC1)c1cc2cc(C(F)(F)F)ccc2[nH]1 [Compound 170] | +++ (+++ = pIC50 ≥5.50) | + (+ = pIC50 4.50-<5.00) |
| O=C(NC1(c2ccn(-c3ccccc3)n2)CC1)c1cc2cc(Cl)ccc2[nH]1 [Compound 143] | +++ (+++ = pIC50 ≥5.50) | + (+ = pIC50 4.50-<5.00) |
| CC(C)Oc1ccc2[nH]c(C(=O)NC3(c4cnn(C)c4)CC3)cc2c1 [Compound 265] | +++ (+++ = pIC50 ≥5.50) | − (− = pIC50 <4.50) |
| COc1ccc(C2(NC(=O)c3cc4cc(Cl)ccc4[nH]3)CC2)cc1 [Compound 150] | +++ (+++ = pIC50 ≥5.50) | ++ (++ = pIC50 5.00-<5.50) |
| CC(NC(=O)c1cc2ccc(C(F)F)cc2[nH]1)c1cnn(C)c1 (stereo not drawn) [Compound 192] | + (+ = pIC50 4.50-<5.00) | − (− = pIC50 <4.50) |
| Cc1c(C2(NC(=O)c3cc4cc(Cl)ccc4[nH]3)CC2)cnn1C [Compound 198] | +++ (+++ = pIC50 ≥5.50) | − (− = pIC50 <4.50) |
| CC(NC(=O)c1cc2ccncc2[nH]1)c1ccccc1 (stereo not drawn) [Compound 81] | + (+ = pIC50 4.50-<5.00) | − (− = pIC50 <4.50) |
| Cc1ccc2cc(C(=O)NC(C)c3ccccc3)[nH]c2c1 (stereo not drawn) [Compound 78] | ++ (++ = pIC50 5.00-<5.50) | + (+ = pIC50 4.50-<5.00) |
| C[C@H](NC(=O)c1cc2c([nH]1)CCCC2)c1ccccc1 [Compound 55] | − (− = pIC50 <4.50) | + (+ = pIC50 4.50-<5.00) |
| Cc1c(C(=O)N[C@H](C)c2ccccc2)[nH]c2ccc(F)cc12 [Compound 38] | ++ (++ = pIC50 5.00-<5.50) | + (+ = pIC50 4.50-<5.00) |
| O=C(Nc1cccc2cnccc12)c1cc2ccc(F)cc2[nH]1 [Compound 2] | ++ (++ = pIC50 5.00-<5.50) | − (− = pIC50 <4.50) |
| O=C(NC1(c2ccccc2)CC1)c1cc2cc(Cl)cnc2[nH]1 [Compound 164] | +++ (+++ = pIC50 ≥5.50) | − (− = pIC50 <4.50) |
